Measured values: US12599560B2, “Lipids and lipid nanoparticle formulations” (Longuide Biopharma Corporation, priority 2023, dated 2026)

Tests used:
[1] = Particle size and PDI by dynamic light scattering; format: physicochemical
Protocol: The 7.5 μL nucleic acid lipid nanoparticle solution (containing approximately 0.04 mg/mL mRNA) was taken and added with 200 μL ultrapure water, mixed by gentle blowing using a pipette tip, and the particle size of the nanopreparation was detected by dynamic lightscattering (DLS) using a Malvern Dynamic Light Scattering Instrument (Malvern Instruments Ltd., ZEN3700, UK). 27.5 μL nucleic acid lipid nanoparticle solution (containing about 0.04 mg/mL mRNA) was taken and added with 200 μL ultrapure water. A pipette tip was used to gently blow the sample and mix well. The particle size of the nanopreparation was detected by Malvern Dynamic Light Scattering Instrument (Malvern Instruments Ltd., ZEN3700, UK). After the detection, the sample was recovered to an EP tube, and 600 μL of ultrapure water was added, gently blown with a pipette tip, and the potential of the nanopreparation was measured by a Malvern particle size meter.

Delta-S protein = test: In vivo immunization with Delta Spike mRNA LNP, serum ELISA for specific antibody; design: species or system mice; conditions: serum after second administration
Protocol: Lipid nanoparticles encapsulating the nucleic acid drugs were prepared according to step 2. The mRNA was replaced with Delta Spike full length mRNA (Shanghai Zhaowei Science and Technology Development Co., Ltd.) and then administered to the mice at a dose of 5 μg per mouse, and on the 14th day after the first immunization, the whole blood of the mice was collected by canthus sampling, and the drug administration was repeated for the second immunization. On the 14th day after the second immunization, the whole blood was collected from mice by canthus sampling. The whole blood was centrifuged at 5000 rcf for 5 mn, and the supernatant was centrifuged at 10000 rcf for 5 min to obtain the serum, which was aliquated into serial tubes and stored in the refrigerator at −20° C.
• 9.2.1 Coating: Add 100 μL of 0.2 μg/100 μL Delta-S protein (Novoprotein Scientific Inc.) dilution solution to each well, and leave it in the refrigerator at 4° C. overnight. • 9.2.2 Washing: Add 200 μL of PBST (PBS buffer solution containing 0.05% Tween-20 at pH 7.4) to each well and wash three times. • 9.2.3 Blocking: Add 200 μL of 5% (w/v) BSA-PBS solution (BSA bovine serum albumin, Bioss Biotechnology Co., Ltd.) to each well, and shake for 2 h at 50 rcf at room temperature using a shaker. • 9.2.4 Washing: Add 200 μL of PBST to each well to wash once. • 9.2.5 Adding samples: Add 100 μL of serum diluted 200 times with PBS (0.5 μL of serum) to each well (for the ELISA titer assay, serum diluted 200 times, 800 times, 3200 times, 12800 times, 51200 times, 204800 times), and shake at room temperature for 2 h at 50 rcf using a shaker. • 9.2.6 Washing: Add 200 μL of PBST into each well for three times. • 9.2.7 Adding detection antibody: Add 100 μL of HRP-labeled goat anti-mouse IgG detection antibody (0.1 μL of antibody master batch) (Sangon Biotech (Shanghai) Co., Ltd.) diluted 1000-fold into each well, and shake at 50 rcf for 1 h at room temperature using a shaker. • 9.2.8 Washing: Add 200 μL of PBST to each well and wash three times. • 9.2.9 Adding TMB (Beijing Solarbio Science & Technology Co., Ltd.): Add 50 μL of TMB mixture with the volume ratio of liquid A:liquid B of 1:1 to each well, and react for 5 mn (ELISA of blood sample I), 7 min 58 sec (ELISA of blood sample II), and react for about 5 min (ELISA titer of blood sample II). • 9.2.10 Adding phosphate (Aladdin Reagent (Shanghai) Co., Ltd.): add 50 μL of 1 mol/L phosphate per well to terminate the reaction. • 9.2.11 Detection: Use multi-function plate reader for detection. 9.3. Neutralization Antibody Levels Detected by Pseudovirus Neutralization Assay • 9.3.1 Cell seeding: 293T-ACE2 cells (Fubio (Suzhou) Biomedical Technology Co., Ltd.) were inoculated with 1×10^5 cells in each well of a 48-well plate at a concentration of 1×10^5 cells in 300 μL of DMEM medium (containing 10% heat-inactivated FBS without bispecific antibody), the 48-well plate was labeled with information such as “number, cell type, number of generations, medium type, date and name”, and then the cells were cultured in a cell culture incubator at 37° C. with 5% CO2 for 18 hours. • 9.3.2 Before the pseudovirus transfection operation, prepare an ice box, re-dissolve the serum to be used on ice, thaw on ice the virus from the −25° C. refrigerator. After thawing, the serum and pseudovirus were flicked homogenously and centrifuged with a palm centrifuge. • 9.3.3 Examine the neutralization antibody with serum diluted in different ratios: use complete culture medium to dilute the pseudovirus (Fubio (Suzhou) Biomedical Technology Co., Ltd.) and mouse serum respectively, mix them well, and then dilute them 40-fold, 100-fold, 250-fold and 625-fold according to the final concentration of the cells of incubation. […]

mice = test: In vivo delivery of FLuc-mRNA lipid nanoparticle preparations in mice (IVIS imaging); design: In vivo IVIS / In vivo IVIS (liver) / In vivo IVIS (spleen): unit not given here; conditions: for in vivo delivery efficiency as compared to the benchmark compound SM102: certain formulations
Protocol: 7. In Vivo Delivery of the Nucleic Acid Lipid Nanoparticle Preparations in Mice After the preparation was completed, the preparation was injected intramuscularly (mice rectus femoris muscle of the thigh) or intravenously (mice tail vein), with approximately 75 μL per mouse, for a total of 3 mice. After a certain time of injection, in vivo imaging (PerkinElmer, IVIS Lumina III) was performed. 10-15 minutes before imaging, 200 μL of 15 mg/mL D-Luciferin working solution was injected intraperitoneally, and the imaging analysis was performed using an in vivo imager.

[2] = Table 2, LNP formulation with mRNA
[3] = Table 2, IV, whole body scan, molar ratio DMG-PEG2000:DSPC:Chol:Lipid and N/P
[4] = Table 4, molar ratio 1.40:11.15:38.95:48.50, N/P 40, IM formulation
[5] = Table 4, molar ratio 1.50:16.00:34.00:48.50, N/P 55, IV formulation

| PDI ([1]; Table 4) | Particle size (nm) ([1]; Table 4) | SMILES | Particle size (nm) [1, 2] [nm] | PDI ([1]; Table 2, polydispersity value) | OD 450 nm-630 nm (Delta-S protein; IM) | In vivo IVIS (mice; Table 2, IM, whole body scan) | In vivo IVIS (mice; [3]) | in vivo delivery efficiency as compared to the benchmark compound SM102 (mice; Table 2) | In vivo IVIS (mice; Table 4, IM) | In vivo IVIS (mice; Table 4, IV) | also measured |
| --- | --- | --- | --- | --- | --- | --- | --- | --- | --- | --- | --- |
|  |  | CCCCCCC(CCCCCC)C(=O)OCCCCCCOC(=O)C(O)CN(CCN1CCN(CCN(CC(O)C(=O)OCCCCCCOC(=O)C(CCCCCC)CCCCCC)CC(O)C(=O)OCCCCCCOC(=O)C(CCCCCC)CCCCCC)CC1)CCN(CC(O)C(=O)OCCCCCCOC(=O)C(CCCCCC)CCCCCC)CC(O)C(=O)OCCCCCCOC(=O)C(CCCCCC)CCCCCC (stereo not shown) [Compound L0203] | 126.73 ± 1.50 | 0.06 ± 0.01 | 1.72 | 8.01 × 10^7 | 3.89 × 10^8 | superior in vivo delivery efficiency |  |  |  |
|  |  | CCCCCCC(CCCCCC)C(=O)OCCCCOC(=O)C(O)CN1CCN(CCN(CC(O)C(=O)OCCCCOC(=O)C(CCCCCC)CCCCCC)CC(O)C(=O)OCCCCOC(=O)C(CCCCCC)CCCCCC)CC1 (stereo not shown) [Compound L0186] | 89.99 ± 0.58 | 0.12 ± 0.00 | 1.70 | 1.58 × 10^8 | 2.77 × 10^8 | superior in vivo delivery efficiency |  |  | In vivo IVIS (liver) (mice; Table 2, IV): 5.61 × 10^7; In vivo IVIS (spleen) (mice; Table 2, IV): 2.65 × 10^7 |
|  |  | CCCCCCOCOCCCCCCOC(=O)C(O)CN(CCCN1CCN(CCCN(CC(O)C(=O)OCCCCCCOCOCCCCCC)CC(O)C(=O)OCCCCCCOCOCCCCCC)CC1)CC(O)C(=O)OCCCCCCOCOCCCCCC (stereo not shown) [Compound L0192] |  |  | 1.68 |  | 5.56 × 10^10 | superior in vivo delivery efficiency |  |  | Particle size (nm) ([1]; Table 2, LNP formulation with mRNA, molar ratio 1.50:4.00:59.50:35.00, N/P 65): 112.83 ± 0.31 nm; Particle size (nm) ([1]; Table 2, LNP formulation with mRNA, molar ratio 1.77:14.07:49.16:35.00, N/P 54): 96.59 ± 0.78 nm; Particle size (nm) ([1]; Table 2, LNP formulation with mRNA, molar ratio 1.77:14.07:59.16:25.00, N/P 52): 113.33 ± 1.07 nm; PDI ([1]; Table 2, polydispersity value, molar ratio 1.50:4.00:59.50:35.00, N/P 65): 0.15 ± 0.01; PDI ([1]; Table 2, polydispersity value, molar ratio 1.77:14.07:49.16:35.00, N/P 54): 0.08 ± 0.02; PDI ([1]; Table 2, polydispersity value, molar ratio 1.77:14.07:59.16:25.00, N/P 52): 0.11 ± 0.02 |
|  |  | CCCCCCOCOCCCCCCOC(=O)C(O)CN(CCN1CCN(CCN(CC(O)C(=O)OCCCCCCOCOCCCCCC)CC(O)C(=O)OCCCCCCOCOCCCCCC)CC1)CCN(CC(O)C(=O)OCCCCCCOCOCCCCCC)CC(O)C(=O)OCCCCCCOCOCCCCCC (stereo not shown) [Compound L0200] |  |  |  | 3.08 × 10^5 |  | superior in vivo delivery efficiency |  |  | Particle size (nm) ([1]; Table 2, LNP formulation with mRNA, molar ratio 1.00:7.00:57.00:35.00, N/P 35): 106.93 ± 0.71 nm; Particle size (nm) ([1]; Table 2, LNP formulation with mRNA, molar ratio 1.40:11.15:38.95:48.50, N/P 65): 117.90 ± 0.36 nm; Particle size (nm) ([1]; Table 2, LNP formulation with mRNA, molar ratio 2.00:16.00:22.00:60.00, N/P 35): 104.50 ± 0.26 nm; PDI ([1]; Table 2, polydispersity value, molar ratio 1.00:7.00:57.00:35.00, N/P 35): 0.06 ± 0.01; PDI ([1]; Table 2, polydispersity value, molar ratio 1.40:11.15:38.95:48.50, N/P 65): 0.08 ± 0.02; PDI ([1]; Table 2, polydispersity value, molar ratio 2.00:16.00:22.00:60.00, N/P 35): 0.12 ± 0.01; OD 450 nm-630 nm (Delta-S protein; IV): 1.61 |
|  |  | CCCCCCC(CCCCCC)C(=O)OCCCCCCOC(=O)C(O)CN1CCN(CCN(CC(O)C(=O)OCCCCCCOC(=O)C(CCCCCC)CCCCCC)CC(O)C(=O)OCCCCCCOC(=O)C(CCCCCC)CCCCCC)CC1 (stereo not shown) [Compound L0187] | 80.11 ± 0.17 | 0.12 ± 0.01 | 1.70 | 9.72 × 10^7 | 1.11 × 10^8 | superior in vivo delivery efficiency |  |  | In vivo IVIS (liver) (mice; Table 2, IV): 2.46 × 10^7; In vivo IVIS (spleen) (mice; Table 2, IV): 2.00 × 10^7 |
|  |  | CCCCCCCCCCCCOC(=O)C(O)CN(CCN1CCN(CCN(CC(O)C(=O)OCCCCCCCCCCCC)CC(O)C(=O)OCCCCCCCCCCCC)CC1)CCN(CC(O)C(=O)OCCCCCCCCCCCC)CC(O)C(=O)OCCCCCCCCCCCC (stereo not shown) [Compound L0199] |  |  |  | 2.19 × 10^7 | 1.07 × 10^9 | superior in vivo delivery efficiency | 5.93 × 10^6 | 9.35 × 10^8 | Particle size (nm) ([1]; Table 2, LNP formulation with mRNA, molar ratio 1.40:11.15:38.95:48.50, N/P 40): 97.65 ± 0.59 nm; Particle size (nm) ([1]; Table 2, LNP formulation with mRNA, molar ratio 2.50:7.00:42.00:48.50, N/P 55): 130.00 ± 1.47 nm; PDI ([1]; Table 2, polydispersity value, molar ratio 1.40:11.15:38.95:48.50, N/P 40): 0.11 ± 0.01; PDI ([1]; Table 2, polydispersity value, molar ratio 2.50:7.00:42.00:48.50, N/P 55): 0.12 ± 0.01; PDI [1, 4]: 0.09 ± 0.02; Particle size (nm) [1, 4]: 123.50 ± 0.36 nm; PDI [1, 5]: 0.10 ± 0.02; Particle size (nm) [1, 5]: 147.57 ± 1.17 nm; OD 450 nm-630 nm (Delta-S protein; IV): 1.52 |
|  |  | CCCCCCCCCCCOC(=O)CCCCCN(CCO)CCCCCCCC(=O)OC(CCCCCCCC)CCCCCCCC [SM-102, reference compound] | 81.71 ± 0.49 | 0.11 ± 0.01 | 1.64 |  | 1.40 × 10^9 |  |  |  |  |
| 0.05 ± 0.01 | 133.83 ± 0.72 | CCCC/C=C\CCOCOCCCCOC(=O)C(O)CN1CCN(CCN(CC(O)C(=O)OCCCCOCOCC/C=C\CCCC)CC(O)C(=O)OCCCCOCOCC/C=C\CCCC)CC1 (stereo not shown) [Compound L0222] |  |  |  |  |  |  | 4.38 × 10^5 | 7.94 × 10^6 |  |
| 0.09 ± 0.02 | 87.05 ± 0.47 | CCCCCCCCCCNC(=O)C(O)CN[C@H]1CC[C@@H](N(CC(O)C(=O)NCCCCCCCCCC)CC(O)C(=O)NCCCCCCCCCC)CC1 (stereo partly shown) [Compound L0217] |  |  |  |  |  |  | 2.97 × 10^6 | 2.87 × 10^7 |  |
| 0.18 ± 0.01 | 95.87 ± 0.24 | CCCCCCCCCCCCOC(=O)C(O)CN[C@H]1CC[C@@H](N(CC(O)C(=O)OCCCCCCCCCCCC)CC(O)C(=O)OCCCCCCCCCCCC)CC1 (stereo partly shown) [Compound L0212] |  |  |  |  |  |  | 1.40 × 10^7 | 1.38 × 10^8 |  |
